This note sets out measurements from patent publication US12344610B2, “APOL1 inhibitors and methods of use” (Maze Therapeutics, Inc., priority 2022, dated 2025).

This test deals with T1, APOL1 G2 (Homo sapiens, UniProt O14791, DEL388-389).
T1 construct: expressed in transfected cells; host or cells: HEK293 T-REx clonal line stably expressing GCaMP6f (HEK T-REx/GCaMP6f/APOL1 G2 K6.3), doxycycline induced
T1 sequence (O14791 with tags, fused parts or gaps DEL388-389): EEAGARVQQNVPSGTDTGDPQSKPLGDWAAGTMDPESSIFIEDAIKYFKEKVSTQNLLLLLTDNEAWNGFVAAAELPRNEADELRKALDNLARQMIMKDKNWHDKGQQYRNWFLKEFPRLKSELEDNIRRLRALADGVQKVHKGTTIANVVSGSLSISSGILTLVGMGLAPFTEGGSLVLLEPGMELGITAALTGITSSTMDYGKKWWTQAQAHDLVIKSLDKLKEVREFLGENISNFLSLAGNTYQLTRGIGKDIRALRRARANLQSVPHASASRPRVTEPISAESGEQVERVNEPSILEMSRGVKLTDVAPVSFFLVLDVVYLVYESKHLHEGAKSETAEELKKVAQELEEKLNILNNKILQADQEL
The test is described as follows: APOL1-mediated calcium transport (calcium influx) assay, HEK T-REx/GCaMP6f/APOL1 G2 K6.3 cells, FLIPR TETRA. The class given is cell-based. Conditions: prevention of calcium influx; geometric mean of at least 2 assay runs; † = average of a technical replicate from a single assay run. The gist of the method: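 A HEK293 T-REx clone stably expressing GCaMP6f had APOL1 G2 induced with doxycycline (20 ng/mL solution added) for 6 h. Cells were then washed into Ca2+-free Tyrode's buffer (pH 7.4) and preincubated with compounds (duplicate 8-point) for 10 min at room temperature. Ca2+ injection to 5 mM final produced FLIPR GCaMP fluorescence, giving AC50 for influx inhibition (geometric mean, ≥2 runs).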

As usually defined, the AC50 is the concentration at which the activity in the assay is half-maximal. In the case of `O=C1Nc2ccc(Cl)cc2C12CCN(CCOc1cnc(C3(CO)CC3)nc1)CC2` [Compound 333, 5-chloro-1′-[2-({2-[1-(hydroxymethyl)cyclopropyl]pyrimidin-5-yl}oxy)ethyl]-1,2-dihydrospiro[indole-3,4′-piperidin]-2-one], the AC50 was 486 nM.
Regarding `C[C@]1(O)C[C@@H](n2cnc3cc(OCCN4CCC5(CC4)C(=O)Nc4ccc(Cl)cc45)cc(C(F)(F)F)c32)C1` [Compound 352, 5-chloro-1′-[2-({1-[(cis)-3-hydroxy-3-methylcyclobutyl]-7-(trifluoromethyl)-1H-1,3-benzodiazol-5-yl}oxy)ethyl]-1,2-dihydrospiro[indole-3,4′-piperidin]-2-one], the AC50 was determined as 597 nM.
With `C[C@]1(O)C[C@@H](n2cnc3cc(OCCN4CCC5(CC4)C(=O)Nc4ccc(Cl)cc45)cc(F)c32)C1` [Compound 454, 5-chloro-1′-(2-((7-fluoro-1-((cis)-3-hydroxy-3-methylcyclobutyl)-1H-benzo[d]imidazol-5-yl)oxy)ethyl)spiro[indoline-3,4′-piperidin]-2-one], the AC50 turned out to be 473 nM.
The figure for `C[C@]1(O)C[C@@H](n2c(=O)[nH]c3cc(OCCN4CCC5(CC4)C(=O)Nc4ccc(C#N)cc45)cc(C(F)(F)F)c32)C1` [Compound 470, 2-oxo-1′-[2-({2-oxo-1-[(cis)-3-hydroxy-3-methylcyclobutyl]-7-(trifluoromethyl)-2,3-dihydro-1H-1,3-benzodiazol-5-yl}oxy)ethyl]-1,2-dihydrospiro[indole-3,4′-piperidine]-5-carbonitrile] is 1110 nM; for `O=C1Nc2ccc(Cl)cc2C12CCN(CCOc1ccc3nccnc3c1)CC2` [Compound 62, 5-chloro-1′-[2-(quinoxalin-6-yloxy)ethyl]-1,2-dihydrospiro[indole-3,4′-piperidin]-2-one] it is 958 nM; for `CC(C)(CO)c1ncc(OCCN2CCC3(CC2)C(=O)Nc2ccc(Cl)cc23)cn1` [Compound 334, 5-chloro-1′-(2-{[2-(1-hydroxy-2-methylpropan-2-yl)pyrimidin-5-yl]oxy}ethyl)-1,2-dihydrospiro[indole-3,4′-piperidin]-2-one] it is 2000 nM.
The figure for `O=C1Nc2ccc(Cl)cc2C12CCN(CCOc1ccc(S(=O)(=O)C3CC3)cc1)CC2` [Compound 43, 5-chloro-1′-{2-[4-(cyclopropanesulfonyl)phenoxy]ethyl}-1,2-dihydrospiro[indole-3,4′-piperidin]-2-one] is 507 nM.
The figure for `CN1C(=O)CCc2cc(OCCN3CCC4(CC3)C(=O)Nc3ccc(Cl)cc34)cnc21` [Compound 78, 5-chloro-1′-{2-[(8-methyl-7-oxo-5,6,7,8-tetrahydro-1,8-naphthyridin-3-yl)oxy]ethyl}-1,2-dihydrospiro[indole-3,4′-piperidin]-2-one] is 522 nM.
As to `CN1C(=O)Cc2cc(OCCN3CCC4(CC3)C(=O)Nc3ccc(Cl)cc34)ccc21` [Compound 65, 5-chloro-1′-{2-[(1-methyl-2-oxo-2,3-dihydro-1H-indol-5-yl)oxy]ethyl}-1,2-dihydrospiro[indole-3,4′-piperidin]-2-one], the AC50 came out at 639 nM.
The figure for `CC[C@]1(O)C[C@@H](N2C(=O)CCc3cc(OCCN4CCC5(CC4)C(=O)Nc4ccc(Cl)cc45)cnc32)C1` (single isomer, unassigned) [Compound 321, 5-chloro-1′-[2-({7-oxo-8-[(cis)-3-ethyl-3-hydroxycyclobutyl]-5,6,7,8-tetrahydro-1,8-naphthyridin-3-yl}oxy)ethyl]-1,2-dihydrospiro[indole-3,4′-piperidin]-2-one] is 621 nM; for `C[C@]1(O)C[C@@H](n2nnc3cc(OCCN4CCC5(CC4)C(=O)Nc4ccc(Cl)cc45)cnc32)C1` [Compound 440, 5-chloro-1′-[2-({3-[(cis)-3-hydroxy-3-methylcyclobutyl]-3H-[1,2,3]triazolo[4,5-b]pyridin-6-yl}oxy)ethyl]-1,2-dihydrospiro[indole-3,4′-piperidin]-2-one] it is 552 nM.
The figure for `C[C@]1(O)C[C@@H](n2ccc3cc(OCCN4CCC5(CC4)C(=O)Nc4ccc(Cl)cc45)cnc32)C1` [Compound 349, 5-chloro-1′-[2-({1-[(cis)-3-hydroxy-3-methylcyclobutyl]-1H-pyrrolo[2,3-b]pyridin-5-yl}oxy)ethyl]-1,2-dihydrospiro[indole-3,4′-piperidin]-2-one] is 199 nM; for `CN(c1ccc(OCCN2CCC3(CC2)C(=O)Nc2ccc(C#N)cc23)cc1)S(C)(=O)=O` [Compound 75, N-[4-(2-{5-cyano-2-oxo-1,2-dihydrospiro[indole-3,4′-piperidin]-1′-yl}ethoxy)phenyl]-N-methylmethanesulfonamide] it is 689 nM.
As to `NC(=O)c1ccc(OCCN2CCC3(CC2)C(=O)Nc2ccc(Cl)cc23)cc1F` [Compound 46, 4-(2-{5-chloro-2-oxo-1,2-dihydrospiro[indole-3,4′-piperidin]-1′-yl}ethoxy)-2-fluorobenzamide], the AC50 turned out to be 434 nM.
Next, `CC(=O)N1Cc2ccc(OCCN3CCC4(CC3)C(=O)Nc3ccc(Cl)cc34)cc2C1` [Compound 57, 1′-{2-[(2-acetyl-2,3-dihydro-1H-isoindol-5-yl)oxy]ethyl}-5-chloro-1,2-dihydrospiro[indole-3,4′-piperidin]-2-one]: 706 nM; `CS(=O)(=O)c1ccc(OCCN2CCC3(CC2)C(=O)Nc2ccc(Cl)cc23)cc1F` [Compound 63, 5-chloro-1′-[2-(3-fluoro-4-methanesulfonylphenoxy)ethyl]-1,2-dihydrospiro[indole-3,4′-piperidin]-2-one]: 461 nM.
The figure for `C[C@]1(O)C[C@@H](n2cnc3cc(OCCN4CCC5(CC4)C(=O)Nc4ccc(C(F)F)cc45)cc(C(F)(F)F)c32)C1` [Compound 450, 5-(difluoromethyl)-1′-[2-({1-[(cis)-3-hydroxy-3-methylcyclobutyl]-7-(trifluoromethyl)-1H-1,3-benzodiazol-5-yl}oxy)ethyl]-1,2-dihydrospiro[indole-3,4′-piperidin]-2-one] is 2270 nM; for `Cn1ncc2cc(OCCN3CCC4(CC3)C(=O)Nc3ccccc34)ccc21` [Compound 70, 1′-{2-[(1-methyl-1H-indazol-5-yl)oxy]ethyl}-1,2-dihydrospiro[indole-3,4′-piperidin]-2-one] it is 124 nM; for `O=C1CCc2cc(OCCN3CCC4(CC3)C(=O)Nc3ccc(Cl)cc34)cnc2N1[C@H]1C[C@@H](CO)C1` (single isomer, unassigned) [Compound 319, 5-chloro-1′-[2-({7-oxo-8-[(cis)-3-(hydroxymethyl)cyclobutyl]-5,6,7,8-tetrahydro-1,8-naphthyridin-3-yl}oxy)ethyl]-1,2-dihydrospiro[indole-3,4′-piperidin]-2-one] it is 378 nM.
The figure for `C[C@]1(O)C[C@@H](N2C(=O)CCc3cc(OCCN4CCC5(CC4)C(=O)Nc4ccc(OC(F)F)cc45)cnc32)C1` [Cmpd 325, 5-(difluoromethoxy)-1′-[2-({7-oxo-8-[(cis)-3-hydroxy-3-methylcyclobutyl]-5,6,7,8-tetrahydro-1,8-naphthyridin-3-yl}oxy)ethyl]-1,2-dihydrospiro[indole-3,4′-piperidin]-2-one] is 791 nM; for `C[C@]1(O)C[C@@H](n2ncc3cc(OCCN4CCC5(CC4)C(=O)Nc4ccc(C#N)cc45)cc(C(F)(F)F)c32)C1` [Compound 465, 2-oxo-1′-[2-({1-[(cis)-3-hydroxy-3-methylcyclobutyl]-7-(trifluoromethyl)-1H-indazol-5-yl}oxy)ethyl]-1,2-dihydrospiro[indole-3,4′-piperidine]-5-carbonitrile] it is 748 nM.
For `CC(=O)N1CCCc2cc(OCCN3CCC4(CC3)C(=O)N(C)c3ccccc34)ccc21` [Compound 36, 1′-{2-[(1-acetyl-1,2,3,4-tetrahydroquinolin-6-yl)oxy]ethyl}-1-methyl-1,2-dihydrospiro[indole-3,4′-piperidin]-2-one], the AC50 is 223 nM.
Take `CC(CO)(c1ncc(OCCN2CCC3(CC2)C(=O)Nc2ccc(Cl)cc23)cc1C(F)(F)F)S(C)(=O)=O` (centres unmarked) [Compound 401, 5-chloro-1′-(2-{[6-(1-hydroxy-2-methanesulfonylpropan-2-yl)-5-(trifluoromethyl)pyridin-3-yl]oxy}ethyl)-1,2-dihydrospiro[indole-3,4′-piperidin]-2-one]: the AC50 is 603 nM.
The figure for `NC(=O)c1ccc(OCCN2CCC3(CC2)C(=O)Nc2ccc(Cl)cc23)cc1` [Compound 45, 4-(2-{5-chloro-2-oxo-1,2-dihydrospiro[indole-3,4′-piperidin]-1′-yl}ethoxy)benzamide] is 746 nM; for `CS(=O)(=O)c1c(F)cc(OCCN2CCC3(CC2)C(=O)Nc2ccccc23)cc1F` [Compound 42, 1′-[2-(3,5-difluoro-4-methanesulfonylphenoxy)ethyl]-1,2-dihydrospiro[indole-3,4′-piperidin]-2-one] it is 316 nM; for `CS(=O)(=O)c1ccc(OCCN2CCC3(CC2)C(=O)Nc2ccc(Cl)cc23)cc1C#N` [Compound 50, 5-(2-{5-chloro-2-oxo-1,2-dihydrospiro[indole-3,4′-piperidin]-1′-yl}ethoxy)-2-methanesulfonylbenzonitrile] it is 622 nM.
